Data from US20030219494A1, “Compositions and methods of using them” (priority 2002, published 2003).
Like-named read-outs stand apart in the source and are kept apart here.

What was measured:
[1] = body weight of STZ-diabetic rats given dietary L-arginine; format: in vivo, rat
From the text: Group 3 STZ-diabetic rats, (n=6, 224.7±2.9 g, mean±SEM) were the same rats used in Example 1 above. […] At 30 wks post-STZ administration, dietary L-arginine supplementation (1 g/day in rat chow) was initiated and continued for 8 wks.

[2] = body weight of control non-diabetic rats given dietary L-arginine; format: in vivo, rat; settings: control non-diabetic rats after 1 wk dietary L-arginine
From the text: Importantly, since diabetic rats eat twice as much as naïve control non-diabetic rats, the concentration of L-arginine in rat chow administered to control non-diabetic rats was doubled to maintain consistent L-arginine dosing between the STZ-diabetic rats and the control non-diabetic rats.

[3] = test system: mechanical allodynia in STZ-diabetic DA rats; test: von Frey antinociception (relief of mechanical allodynia) after single s.c. opioid in STZ-diabetic DA rats, standard chow or dietary L-arginine; settings: for ED50: Rattus norvegicus, sc; for peak antinociception / time of decline of antinociception to baseline levels (<20% MPE) / time to peak antinociception: 3 wks post-STZ
Procedure: Deep and stable anaesthesia was induced with a mixture of ketamine (100 mg/kg, i.p.) and xylazine (16 mg/kg, i.p.) to facilitate insertion of a polyethylene cannula (previously filled with 0.1 ml of sterile saline) into the right common jugular vein. Jugular vein cannulae were tested for correct placement by the withdrawal of a small amount of blood. Diabetes was induced following an acute i.v. injection of streptozotocin (STZ) (85 mg/kg) in 0.1 M citrate buffer (pH 4.5) into the jugular vein.
Naïve non-diabetic rats (n=36) were used in the control experiments. Following STZ administration, benzylpenicillin (60 mg, s.c.) was administered to prevent infection and rats were monitored closely during surgical recovery. Rats were then housed singly or in pairs for period of 3 wks to 38 wks, depending upon the study cohort to which they belonged.
(§1) Multiple aliquots of these stock solutions were stored at −20° C. until required. […] Whilst under light anaesthesia with CO2/O2 (50:50%), rats received a single s.c. injection (100 μL) of one opioid or vehicle (saline) into the dorsal region of the base of the neck, using a 250 μL Hamilton syringe.
(§2) Mechanical allodynia, the distinguishing feature of diabetic neuropathic pain, was quantified using von Frey filaments. Rats were placed in a metabolic cage (20 cm×20 cm×20 cm) with a metal mesh floor and allowed to acclimatise for approximately 10 min. von Frey filaments were used to quantify the lowest mechanical threshold required for a brisk paw withdrawal reflex. The force was applied to the plantar surface of the left hindpaw and held until the filament buckled slightly. The absence of a response after 5 s prompted application of the next filament of increasing force. Filaments available for use included those that produced a buckling weight of 2, 4, 5, 6, 8, 10, 12, 14, 16, and 18 g. Filaments were calibrated daily before undertaking antinociceptive testing. […] Pre-drug (opioid or saline) responses were the mean of three readings taken ≈5 min apart. Assessment of von Frey filament responsiveness was determined at the following times post-opioid (or saline) administration: 15, 30, 45, 60, 90, 120 and 180 min.
(§3) The von Frey scores for individual rats were converted to the Percentage of the Maximum Possible Antinociceptive Effect (% MPE), according to the formula: [formula]
(§4) The mean (±SEM) percentage maximum AUC (% Max AUC) was calculated according to the following formula: [formula]
(§5) ED50 estimation was facilitated by the inclusion of theoretical maximum and minimum % Max AUC values.
This study comprised three groups of STZ-diabetic DA rats. […] Subsequent doses were chosen to facilitate construction of dose-response curves for the alleviation of tactile allodynia. Antinociception was quantified using calibrated von Frey filaments.
At 9 wks post-STZ administration, Group 1 STZ-diabetic rats received a dietary intervention of an L-arginine supplement (1 g per day) incorporated into rat chow, until the end of the 24 wk study period.
At 14 wks post-STZ administration, a dietary intervention comprising L-arginine supplementation (1 g per day in rat chow) was initiated which was continued for another 8 wks.
At 30 wks post-STZ administration, dietary L-arginine supplementation (1 g/day in rat chow) was initiated and continued for 8 wks.

[4] = test system: tactile allodynia in STZ-diabetic DA rats; test: baseline von Frey paw withdrawal thresholds in STZ-diabetic rats given dietary L-arginine; format: in vivo, rat
From the text: Filaments were calibrated daily before undertaking antinociceptive testing.

[5] = test system: rats with a chronic constriction injury (CCI) of the sciatic nerve; settings: relief of mechanical allodynia; cited from earlier work
naïve Dark Agouti rats = settings: s.c., tail flick test; cited from earlier work
[6] = test system: naïve control non-diabetic DA rats; test: von Frey antinociception after single s.c. opioid in control non-diabetic DA rats; format: in vivo, rat; settings: for ED50: s.c.
Procedure: as §1, §2, §3, §4, §5
Weight-matched naïve control DA rats received dietary L-arginine supplementation (1 g per day in rat chow) for at least 1 wk prior to acute opioid administration and concomitant antinociceptive testing. Importantly, since diabetic rats eat twice as much as naïve control non-diabetic rats, the concentration of L-arginine in rat chow administered to control non-diabetic rats was doubled to maintain consistent L-arginine dosing between the STZ-diabetic rats and the control non-diabetic rats.

[7] = Group 1, 12 wks post-STZ (3 wks L-arginine)
[8] = Group 2, 18 wks post-STZ (4 wks L-arginine)
[9] = Group 2, 22 wks post-STZ (8 wks L-arginine)
[10] = Group 3, 34 wks post-STZ (4 wks L-arginine)
[11] = Group 3, 38 wks post-STZ (8 wks L-arginine)
[12] = 3 wks supplementation, 9 to 12 wks post-STZ
[13] = 24 wks post-STZ / full 24 wk study period, standard chow
[14] = 504 h, read-out: Mean (±SEM) ED50, STZ-diabetic rats 3 wks post-STZ, standard chow, s.c.
[15] = 1512 h, STZ-diabetic rats at 3 and 9 wks post-STZ, standard chow
[16] = 1512 h, read-out: Mean (±SEM) ED50, STZ-diabetic rats 9 wks post-STZ, standard chow (before L-arginine), s.c.
[17] = STZ-diabetic rats 12 wks post-STZ after 3 wks dietary L-arginine (1 g/day), s.c.
[18] = STZ-diabetic rats 24 wks post-STZ after 15 wks dietary L-arginine (1 g/day), s.c.
[19] = Rattus norvegicus, sc, control naïve non-diabetic rats, standard chow, von Frey % Max AUC, read-out: Mean (±SEM) ED50

N=C(N)NCCC[C@H](N)C(=O)O [L-arginine]
mean (±SEM) body weight [1, 7]: 229.0 (±6.0) g
mean (±SEM) body weight ([1]; Group 1, 16 wks post-STZ (7 wks L-arginine)): 218.0 (±7.2) g
mean (±SEM) body weight ([1]; Group 1, 20 wks post-STZ (11 wks L-arginine), n=6): 253.4 (±9.9) g
mean (±SEM) body weight ([1]; Group 1, 24 wks post-STZ (15 wks L-arginine), n=25): 234.5 (±5.1) g
mean (±SEM) body weight [1, 8]: 203.2 (±6.4) g
mean (±SEM) body weight [1, 9]: 220.9 (±11.6) g
mean (±SEM) body weight [1, 10]: 207.8 (±10.7) g
mean (±SEM) body weight [1, 11]: 221.7 (±11.7) g
mean (±SEM) body weight [2]: 236.3 g
effect of dietary L-arginine on morphine's antinociceptive efficacy [3, 12]: prevented the abolition
effect of dietary L-arginine on oxycodone potency [3, 12]: prevented the 2-fold decrease
effect of dietary L-arginine on antinociceptive potency of morphine ([3]; 4 wks supplementation (30 to 34 wks post-STZ), Group 3): partially restored
effect of dietary L-arginine on antinociceptive efficacy of s.c. morphine (6.1 mg/kg) ([3]; 4 wks supplementation, Group 2, 18 wks post-STZ): restored
effect of late-initiated dietary L-arginine on morphine efficacy ([3]; started 14 and 30 wks post-STZ (groups 2 and 3), after as little as 4 wks): restored morphine efficacy
paw withdrawal threshold ([4]; Group 1, 9 wks post-STZ (start of dietary L-arginine 1 g/day)): 6.8 (±0.3) g
paw withdrawal threshold [4, 7]: 4.3 (±0.1) g
paw withdrawal threshold ([4]; Group 1, 24 wks post-STZ (15 wks L-arginine)): 5.2 (±0.1) g
paw withdrawal threshold [4, 8]: 4.9 (±0.2) g
paw withdrawal threshold [4, 9]: 6.1 (±0.4) g
paw withdrawal threshold [4, 10]: 3.9 (±0.2) g
paw withdrawal threshold [4, 11]: 5.0 (±0.2) g

COc1ccc2c3c1O[C@H]1C(=O)CC[C@@]4(O)[C@@H](C2)N(C)CC[C@]314 [oxycodone]
potency relative to morphine [5]: ≈ 4 times
antinociceptive efficacy/potency ([3]; 12 wks post-STZ, standard chow, s.c.): maintained
antinociceptive efficacy [3, 13]: maintained
ED50 [3, 14]: 2 mg/kg
ED50 [3, 15]: 2.1 ± 0.4 mg/kg
ED50 [3, 16]: 2.1 mg/kg
ED50 ([3]; 2016 h, read-out: Mean (±SEM) ED50, STZ-diabetic rats 12 wks post-STZ, standard chow, s.c.): 4.1 mg/kg
ED50 ([3]; 4032 h, read-out: Mean (±SEM) ED50, STZ-diabetic rats 24 wks post-STZ, standard chow, s.c.): 4.2 mg/kg
ED50 [3, 17]: 2 ± 0.3 mg/kg
ED50 [3, 18]: 1.8 ± 0.3 mg/kg
potency relative to morphine for alleviation of mechanical allodynia ([3]; STZ-diabetic rats 3 wks post-STZ, s.c.): ≈ 3 times
decrease in potency between 9 and 12 wks post-STZ ([3]; STZ-diabetic rats, standard chow): 2 fold
decrease in antinociceptive potency relative to control non-diabetic rats ([3]; at 12 wks post-STZ, unchanged at 24 wks, standard chow): 4 fold
rightward shift in the dose-response curve versus non-diabetic rats ([3]; by 3 wks post-STZ): ≈ 1.7 fold
decrease in potency relative to weight-matched control non-diabetic rats ([3]; by 9 wks post-STZ): ≈ 2 fold
peak antinociception ([3]; oxycodone 1.7 mg/kg s.c.): 90 % MPE
time of decline of antinociception to baseline levels (<20% MPE) ([3]; oxycodone 1.7 mg/kg s.c.): ≤ 120 min
time to peak antinociception ([3]; oxycodone 1.7 mg/kg s.c.): ≤ 30 min
% MPE AUC ([3]; oxycodone 2.0 mg/kg s.c., 9 wks post-STZ, standard chow): 108.7±13.2 % MPE-h
% MPE AUC ([3]; oxycodone 2.0 mg/kg s.c., 12 wks post-STZ, standard chow): 37.0±1.1 % MPE-h
% MPE AUC (±SEM) ([3]; oxycodone 2.0 mg/kg s.c., 20 wks post-STZ, 11 wks dietary L-arginine (Group 1)): 160.3±7.6 % MPE-h
% MPE AUC ([3]; oxycodone 2.0 mg/kg s.c., 22 wks post-STZ, 8 wks dietary L-arginine (Group 2)): 139.4±9.4 MPE-h
% MPE AUC ([3]; oxycodone 2.0 mg/kg s.c., 38 wks post-STZ, 8 wks dietary L-arginine (Group 3)): 147.0±1.9 % MPE-h
% MPE AUC ([3]; oxycodone 4.0 mg/kg s.c., 24 wks post-STZ, standard chow): 144.0±13.7 MPE-h
potency for relief of mechanical allodynia as percent of that in diabetic rats on standard chow at 9 wks post-STZ ([3]; oxycodone, 11 wks dietary L-arginine (20 wks post-STZ)): ≈ 150%
potency relative to morphine (naïve Dark Agouti rats): ≈ 3 times
ED50 ([6]; Rattus norvegicus, sc, 168 h, control non-diabetic rats, dietary L-arginine 1 g/day for 1 wk, read-out: ED50): 1 ± 0.1 mg/kg
ED50 [6, 19]: 1.2 mg/kg
potency relative to morphine ([6]; printed: at 3 and 9 wks post-STZ, s.c. route, naïve non-diabetic rats): ≈ 2 fold

CN1CC[C@]23c4c5ccc(O)c4O[C@H]2[C@@H](O)C=C[C@H]3[C@H]1C5 [morphine]
antinociceptive efficacy [3, 13]: remained completely abolished
ED50 [3, 14]: 6.1 mg/kg
ED50 [3, 15]: 6.1 ± 0.3 mg/kg
ED50 [3, 16]: 6.1 mg/kg
ED50 [3, 17]: 7 ± 0.5 mg/kg
ED50 [3, 18]: 5 ± 0.9 mg/kg
Mean (±SEM) ED50 ([3]; STZ-diabetic rats 12 wks post-STZ, standard chow, s.c.): No efficacy
Mean (±SEM) ED50 ([3]; STZ-diabetic rats 24 wks post-STZ, standard chow, s.c.): No efficacy
peak antinociception ([3]; morphine 4 mg/kg s.c.): 70 % MPE
time of decline of antinociception to baseline levels (<20% MPE) ([3]; morphine 4 mg/kg s.c.): ≤ 90 min
time to peak antinociception ([3]; morphine 4 mg/kg s.c.): ≤ 15 min
antinociceptive efficacy ([3]; morphine 6.1 mg/kg s.c., 14 wks post-STZ, before L-arginine (Group 2)): completely abolished
efficacy for the relief of mechanical allodynia ([3]; morphine 6.1 mg/kg s.c., 16 wks post-STZ, 7 wks dietary L-arginine): maintained
antinociceptive efficacy ([3]; morphine 14.2 mg/kg s.c., 12 wks post-STZ): remained completely abolished
antinociception ([3]; morphine 18 mg/kg s.c., 12 wks post-STZ): absence of antinociception
behavioural side effects ([3]; morphine 18 mg/kg s.c., STZ-diabetic rats 12 wks post-STZ (myoclonus, biting of cage)): mild neuro-excitatory behaviours
antinociceptive efficacy ([3]; morphine s.c., 24 wks post-STZ, 15 wks dietary L-arginine): maintained
potency for relief of mechanical allodynia as percent of that in control non-diabetic rats ([3]; morphine, STZ-diabetic rats, 11 wks dietary L-arginine (20 wks post-STZ)): ≈ 90%
ED50 [6, 19]: 2.4 mg/kg
ED50 ([6]; control non-diabetic rats, dietary L-arginine 1 g/day for 1 wk): does not differ significantly
